Entries after “also recorded” stand apart in the source; their conditions may differ.
What was measured:
mice (WT and APP/PS1) = assay: Contextual and cued fear conditioning; assay type: in vivo, mouse; conditions: for freezing time in contextual learning: at 21 days
Procedure: Behavioral Studies: Fear conditioning was performed in a conditioning chamber as previously described (Bourtchuladze et al., 1994; Gong et al., 2004). For contextual and cued fear conditioning mice were placed in the conditioning chamber for 2 min before the onset of a discrete tone (CS) (a 30 sec sound at 2800 Hz and 85 dB). In the last 2 sec of the CS, mice were given a foot shock (US) of 0.50 mA for 2 sec through the bars of the floor. After the CS/US pairing, the mice were left in the conditioning chamber for another 30 sec and then placed back in their home cages. Freezing behavior, defined as the absence of all movement except for that necessitated by breathing, was scored using Freezeview software. To evaluate contextual fear learning, freezing was measured for 5 min in the chamber in which the mice were trained 24 hrs after training. To evaluate cued fear conditioning, following contextual testing, the mice were placed in a novel context (triangular cage with smooth flat floor and with vanilla odorant) for 2 min (pre-CS test), after which they were exposed to the CS for 3 min (CS test), and freezing was measured. To evaluate the contextual fear over time, mice were placed for 5 min in the chamber in which the mice were trained 7- 14- 21-days after training. Sensory perception of the shock was determined through threshold assessment. Each animal was placed individually into the conditioning chamber. […] Animal behavior was evaluated for the first visible response to the shock (flinch), the first extreme motor response (run/jump), and the first vocalized distress (scream). Threshold to flinching, jumping, and screaming was quantified for each animal by averaging of the shock intensity at which each animal manifested a behavioral response of that type to the foot shock. Visual, motor, and motivation skills were also tested with visible platform training by measuring the time and the speed to reach a visible platform placed within a pool filled with water (Gong et al., 2004). Both time to reach the platform and swimming speed were recorded and analyzed with a video tracking system (HVS-2020, HVS Image, UK). No difference was observed among different groups of mice in the experiments in which fear conditioning was tested both in the presence of LDN and TAT fusion proteins. To decide the time of administration of LDN, experiments were performed in which the inhibitor was injected intra-peritoneally at different intervals (4 hrs before, 1 hr before, 1 hr after and 4 hrs after) from the electric shock. During the training phase, no difference was found in the freezing of LDN- or vehicle-injected mice.

phospho-CREB at Ser-133 = assay: Phospho-CREB (Ser-133) Western blot in hippocampal cultures; assay type: cell-based, rat; conditions: LDN 10 μM
Procedure: Western Blotting: Protein levels were assessed using standard procedures. Protein extraction was performed using buffer with and without detergent. For the extraction of protein using detergent, hippocampal tissues and cultured hippocampal neurons (5 DIV) were homogenized in RIPA buffer (50 mM Tris-HCl pH 7.4, 1% Triton X-100, 1% sodium deoxycholate, 0.1% SDS, 150 mM sodium chloride, 10 mM sodium fluoride, 30 mM sodium pyrophosphate, 50 mM sodium orthovanadate) containing 1× complete protease inhibitor (Roche) and 1 mM phenylmethylsulfonyl fluoride (PMSF). For extraction of proteins without detergent, hippocampal extracts were homogenized with disposable dounce homogenizers in buffer A, containing 10 mM HEPES pH 7.3, 300 mM sucrose, protease 1× complete protease inhibitor (Roche) and PMSF. After centrifugation at 10,000×g supernatant proteins were resolved on a 8% or 4-20% gradient Tris-Glycine gel, transferred onto PVDF or nitrocellulose membrane and blocked in 5% skim milk in PBS-Tween 0.1% (PBS-T). Membranes were probed with primary antibodies, and after washing with PBS-T incubated with an appropriate HRP-conjugated secondary antibody. The following antibodies were used: mouse monoclonal anti-ubiquitin (Chemicon), rabbit polyclonal anti-pCREB (Upstate Biotech.), rabbit polyclonal anti-PKA-RIIα (Santa Cruz Biotech. Inc), mouse monoclonal anti-Uch-L1 (Novocastra), monoclonal mouse anti-HA (Santa Cruz Biotech. Inc), and anti-PKA IIα. Detection was performed using HRP-conjugated secondary antibodies (Pierce, Rockford, Ill.). To control loading and transfer, protein immunoreactivities were normalized against total extracellular signal-regulated protein kinases (ERK1/2) levels with a rabbit analyzed using a rabbit polyclonal anti-ERK1/2 antibody (Cell Signaling Technology, Inc). NIH IMAGE was used to analyze the scanned blots and quantify the intensity of the protein signals.
Preparation of Cell Cultures. Hippocampal cell cultures were prepared as previously described (Vitolo et al., 2002). In cell culture experiments fetuses at embryonic day 18 from timed pregnant Sprague-Dawley rats (Taconic Farms) were used. Fetuses were sacrificed and the hippocampi removed. Neurons were then dissociated, plated on 6 well-plates coated with poly-L-lysine and maintained in a defined serum-free medium containing minimum essential medium supplemented with N-2, glucose, albumin, pyruvic acid, antibiotics and antimycotics. […] 5 DIV cells were used for the experiments.

[1] = tested on: BST at the Schaffer collateral/CA1 connection of hippocampal slices; assay: Basal synaptic transmission (BST) in hippocampal slices; assay type: cell-based, mouse
[2] = tested on: CA1-LTP in hippocampal slices; assay: CA1-LTP in hippocampal slices (theta-burst); assay type: cell-based, mouse
[3] = tested on: SY5Y neuroblastoma cells transfected with a degron CL1-GFP expression vector; assay: Proteasome reporter assay (GFP^u); assay type: cell-based, human; conditions: substance alone
Procedure: Proteasome reporter assays. In this cell line, human neuroblastoma SH-SY5Y cells were permanently transfected with reporter construct consisting of green fluorescent protein (GFP) conjugated at its C-terminus to a short degron sequence (CL-1) (Gilon et al., 1998). […] The SY5Y-GFP^u cells were grown in 1×DMEM (Invitrogen) supplemented with 15% fetal bovine serum (JRH), 1× penicillin/streptomycin (Gibco). After indicated treatments, GFP^u concentrations were assayed by densitometric analysis of immunoblots of total protein extracts (10 ug/lane) using monoclonal GFP antibodies (Santa Cruz Biotechnology) and visualized with HRP-conjugated secondary antibodies and ECL (Pierce). Loading equalization was normalized by probing blots with anti-ERK antibodies (Santa Cruz Biotechnology).

[4] = LDN 5 μM, 15 min, listed as LDN

Compound: CC(=O)O/N=C1\C(=O)N(Cc2cc(Cl)ccc2Cl)c2ccc(Cl)cc21 [LDN-57444, reference compound]
- cued fear conditioning (mice (WT and APP/PS1); LDN 0.4 mg/kg i.p.): did not show a difference
- freezing time in contextual conditioning (mice (WT and APP/PS1); LDN 0.4 mg/kg i.p. 4 hrs after the electric shock, twenty-four hours later): 74 % of that of vehicle-treated mice
- freezing time in contextual learning (mice (WT and APP/PS1); LDN 0.4 mg/kg i.p.): about 70 % of vehicle-treated mice
- freezing time in contextual learning (mice (WT and APP/PS1); LDN 0.4 mg/kg i.p., listed as LDN): 70 % of vehicle-treated mice
- contextual conditioning performance (mice (WT and APP/PS1); LDN 0.4 mg/kg i.p., context at 1, 7, 14 and 21 days after training): worsened contextual conditioning performance
- contextual learning (mice (WT and APP/PS1); LDN injected at 4 and 1 hour before the shock or at 1 hour after the shock): failed to impair contextual learning
- freezing during the training phase (mice (WT and APP/PS1); LDN- versus vehicle-injected mice): no difference
- phospho-CREB enhancement / beneficial effect of TAT-HA-Uch-L1 (phospho-CREB at Ser-133): blocked the beneficial effect of TAT-HA-Uch-L1; also recorded: did not allow the enhancement of phospho-CREB
- phospho-CREB enhancement / beneficial effect of TAT-HA-Uch-L1 (phospho-CREB at Ser-133; listed as LDN): blocked the beneficial effect of TAT-HA-Uch-L1; also recorded: did not allow the enhancement of phospho-CREB
- BST ([1]; LDN 2.7 μM and 1 μM, 2-4 hr, listed as LDN): normal BST; also recorded: did not affect CA1-BST
- BST ([1]; LDN 5 μM, 15 min): did not affect BST or LTP; also recorded: did not affect CA1-BST
- BST [1, 4]: did not affect basal synaptic transmission (BST) or LTP; also recorded: does not affect CA1-BST
- BST ([1]; LDN 5 μM, 2 hrs): without affecting BST; also recorded: not affected
- BST ([1]; LDN 5 μM, 2 hrs, listed as LDN): without affecting BST; also recorded: not affected
- BST ([1]; LDN 5 μM, 4 hrs): strongly reduced
- BST ([1]; LDN 5 μM, 4 hrs, listed as LDN): reduced both; also recorded: strongly reduced
- BST ([1]; LDN-57444, 4 hour exposure): approximately 40 % of vehicle treated slices
- LTP ([2]; LDN 1 μM, 2-4 hr, listed as LDN): has no effect
- LTP ([2]; LDN 2.7 μM, 2-4 hr, listed as LDN): reduces CA1-LTP
- LTP in Aβ-treated slices ([2]; LDN 5 μM for 2 hrs, 200 nM Aβ, listed as LDN): does not further reduce potentiation; also recorded: did not further reduce LTP
- LTP in APP/PS1 slices ([2]; LDN 5 μM for 2 hrs, listed as LDN): does not further reduce potentiation; also recorded: did not further reduce LTP
- LTP ([2]; LDN 5 μM, 15 min): did not affect BST or LTP; also recorded: did not affect CA1-LTP
- LTP [2, 4]: did not affect basal synaptic transmission (BST) or LTP; also recorded: did not affect CA1-LTP
- LTP ([2]; LDN 5 μM, 2 hrs): blocked
- LTP ([2]; LDN 5 μM, 2 hrs, listed as LDN): diminished LTP; also recorded: reduced
- LTP ([2]; LDN 5 μM, 4 hrs): strongly reduced
- LTP ([2]; LDN 5 μM, 4 hrs, listed as LDN): reduced both; also recorded: strongly reduced
- LTP ([2]; LDN-57444, 2 hour exposure): approximately 70 % of vehicle treated slices
- LTP ([2]; LDN-57444, 4 hour exposure): ~65 % of vehicle treated slices
- baseline transmission in slices without tetanic stimulation ([2]; non-tetanized slices): did not affect baseline transmission
- GFP^u levels [3]: much larger increase in GFP
